This is an account of results in article PMC12669040, “Tumour-specific STING agonist synthesis via a two-component prodrug system” (Nature Chemistry, 2025).

Several values for one entry are separate records, joined by “and”; a condition that tells them apart may be missing. Equal values may be shown once.

A short description of data set [1]: Colorimetric alkylation rate constant assay with TNB^2− as non-specific thiol. Type of data set: physicochemical. Details: second-order: unit not given here. The settings on record: [B]0 = 250, Replicates 1-3.
The nature of data set [2]: Colorimetric alkylation rate constant assay with thiol N1. Type of data set: physicochemical.
Data set [3] in a line: Competition assay: N1–E4 dimerization in the presence of competitors C1–6 (HPLC). Type of data set: physicochemical. Particulars: equimolar E4, competitor and N1, 50 μM each.
The test system of data set [4] is THP-1 Lucia ISG cells. Briefly: β-Glucuronidase-specific STING activation, cytokine secretion assays. Type of data set: cell-based, human. The settings on record: 25 μM each, with β-glucuronidase 250 units ml^−1, 24 h.
Data set [5] concerns the molecule itself. The data set is described as follows: crystal structure; STING LBD (247 µM) with compound D5 (2.2 mM), sitting drops, 20 °C; 2.31 Å.
Substrate in data set [6]: COc1cc2sc(C(=O)CCC(=O)O)cc2cc1SCO[C@@H]1O[C@H](C(=O)O)[C@@H](O)[C@H](O)[C@H]1O
Briefly: Michaelis–Menten kinetics of β-GlcA-N1 cleavage. Type of data set: biochemical, human. Particulars: other: 37 °C, 0.2 M sodium acetate pH 4.5, 67 nM enzyme. The method, then:
Human β-glucuronidase (AcroBiosystems BEB-H52H3) was reconstituted in deionized water to a concentration of 1 mg ml^−1. The enzyme stock solution was further diluted in assay buffer (0.2 M acetate pH 4.5) to 10 μg ml^−1 (134 nM). β-GlcA-N1 (50 mM DMSO stock) was twofold serially diluted in assay buffer from 5 to 0.078 mM. The enzyme solution and diluted β-GlcA-N1 were incubated in a transparent 96-well plate and incubated at 37 °C until thermo equilibrium was reached. Then, 100 µl of β-GlcA-N1 at various concentrations was mixed with 100 µl of β-glucuronidase using a multichannel pipette, resulting in the following initial condition: [β-GlcA-N1] = 2.5, 1.25, 0.62, 0.31, 0.16, 0.08 and 0.04 mM; [β-glucuronidase] = 67 nM; 5% DMSO (v/v). The reactions were incubated at 37 °C. At 30-min and 60-min timepoints, a 50-µl portion was withdrawn from each reaction mixture and mixed with 50 µl of quenching buffer (1 M sodium carbonate, 1 mM TCEP). The concentration of liberated N1 was determined by comparing the absorbance of each quenched reaction at 410 nm to a calibration curve of purified N1. Reaction velocities were calculated from the slopes of [N1] versus time plots. The velocity versus [β-GlcA-N1] plot was then fitted with the standard Michaelis–Menten kinetic model (GraphPad Prism).

For `O=C(CCl)Nc1cc(C(F)(F)F)cc(C(F)(F)F)c1` [Compound C1], the second-order is 0.0005428 and 0.0004879 and 0.0005765 in data set [1] (Time 2891 sec); 0.0005659 and 0.0004944 and 0.0005968 in data set [1] (Time 3071 sec); 0.0005928 and 0.000525 and 0.0006178 in data set [1] (Time 3252 sec); 0.0006132 and 0.0005166 and 0.0006465 in data set [1] (Time 3433 sec); 0.0006269 and 0.0005419 and 0.0006634 in data set [1] (Time 3613 sec); 0.0006518 and 0.0005802 and 0.0006849 in data set [1] (Time 3794 sec). In addition, the second-order in data set [1] (Time 3974 sec) was 0.0006575 and 0.0005747 and 0.00069; in data set [1] (Time 4155 sec) it was 0.0006878 and 0.0006116 and 0.0007283; in data set [1] (Time 4336 sec), 0.0007043 and 0.0006446 and 0.000736; in data set [1] (Time 4516 sec), 0.0007158 and 0.0006546 and 0.0007684; in data set [1] (Time 4697 sec), 0.0007519 and 0.0006931 and 0.0007736; in data set [1] (Time 4878 sec) it was 0.0007648 and 0.000697 and 0.0008077. The second-order in data set [1] (Time 5058 sec) was 0.000772 and 0.0007238 and 0.0008222; in data set [1] (Time 5239 sec) it was 0.0008041 and 0.000747 and 0.0008434; in data set [1] (Time 5419 sec), 0.0008239 and 0.0007489 and 0.0008675; in data set [1] (Time 5600 sec) it was 0.0008471 and 0.0007554 and 0.0008837; in data set [1] (Time 5781 sec) it was 0.0008692 and 0.0007775 and 0.0009026; in data set [1] (Time 5961 sec) it was 0.0008692 and 0.000805 and 0.0009333. In addition, the second-order in data set [2] (Replicate 1, time 576 sec, second-order plot value) was found to be 0.007537; in data set [2] (Replicate 1, time 606 sec, second-order plot value), 0.007697; in data set [2] (Replicate 2, time 576 sec, second-order plot value), 0.007533; in data set [2] (Replicate 2, time 606 sec, second-order plot value) it was 0.00792; in data set [2] (Replicate 3, time 576 sec, second-order plot value), 0.007357; in data set [2] (Replicate 3, time 606 sec, second-order plot value), 0.007639. For the same molecule, the second-order was 0.001153 and 0.001059 and 0.00116 in data set [2] (time 0 sec, replicates 1-3); 0.001608 and 0.001493 and 0.001543 in data set [2] (time 30 sec, replicates 1-3); 0.001966 and 0.001867 and 0.001909 in data set [2] (time 60 sec, replicates 1-3); 0.002342 and 0.002215 and 0.002258 in data set [2] (time 91 sec, replicates 1-3); 0.002679 and 0.002554 and 0.002612 in data set [2] (time 121 sec, replicates 1-3); 0.002904 and 0.002968 in data set [2] (time 151 sec, replicates 1-3). Moreover, the second-order in data set [2] (time 212 sec, replicates 1-3) is 0.003712 and 0.003583 and 0.003667; in data set [2] (time 242 sec, replicates 1-3), 0.004057 and 0.003913 and 0.004; in data set [2] (time 273 sec, replicates 1-3), 0.00439 and 0.004239 and 0.004347; in data set [2] (time 303 sec, replicates 1-3) it was 0.004715 and 0.004571 and 0.004691; in data set [2] (time 333 sec, replicates 1-3) it was 0.005043 and 0.004886 and 0.00503; in data set [2] (time 364 sec, replicates 1-3) it was 0.005369 and 0.005207 and 0.005358. For the same molecule, the second-order in data set [2] (time 394 sec, replicates 1-3) is 0.005645 and 0.005521 and 0.005712; in data set [2] (time 424 sec, replicates 1-3), 0.005918 and 0.005838 and 0.006051; in data set [2] (time 454 sec, replicates 1-3), 0.006191 and 0.006157 and 0.006365; in data set [2] (time 485 sec, replicates 1-3), 0.006532 and 0.006449 and 0.006705; in data set [2] (time 515 sec, replicates 1-3), 0.006798 and 0.006747 and 0.007019; in data set [2] (time 545 sec, replicates 1-3), 0.007139 and 0.00704 and 0.007306. The “reduction of the amount of N1–E4 dimer by the competitor” value in data set [3] is recorded as 35%.

For the molecule `CCSc1cc2cc(C(=O)CCC(=O)O)sc2cc1OC` [Compound E4-ctrl], in data set [4], the “secretion of cytokines downstream of STING (interferon-β, CXCL-10, IL-6)” value is recorded as “diminished the cytokine inductions”.

B1: R232-STING 138-379 (ligand-binding domain of human STING) (domain or fragment, UniProt Q86WV6 138-379, looked up)
chain: GLAPAEISAVCEKGNFNVAHGLAWSYYIGYLRLILPELQARIRTYNQHYNNLLRGAVSQRLYILLPLDCGVPDNLSMADPNIRFLDKLPQQTGDHAGIKDRVYSNSIYELLENGQRAGTCVLEYATPLQTLFAMSQYSQAGFSREDRLEQAKLFCRTLEDILADAPESQNNCRLIAYQEPADDSSFSLSQEVLRHLRQEEKEEVTVGSLKTSAVPSTSTMSQEPELLISGMEKPLPLRTDFS
notes: chains A and B form the dimer; also called STING LBD; hSTING LBD; source: E. coli BL21(DE3), purified (Ni-NTA, TEV cleavage, reverse Ni-NTA, gel filtration)
As to B1, the binding result in data set [5] was “binds”.

B2: human β-glucuronidase (Homo sapiens) (protein)
chain: LQGGMLYPQESPSRECKELDGLWSFRADFSDNRRRGFEEQWYRRPLWESGPTVDMPVPSSFNDISQDWRLRHFVGWVWYEREVILPERWTQDLRTRVVLRIGSAHSYAIVWVNGVDTLEHEGGYLPFEADISNLVQVGPLPSRLRITIAINNTLTPTTLPPGTIQYLTDTSKYPKGYFVQNTYFDFFNYAGLQRSVLLYTTPTTYIDDITVTTSVEQDSGLVNYQISVKGSNLFKLEVRLLDAENKVVANGTGTQGQLKVPGVSLWWPYLMHERPAYLYSLEVQLTAQTSLGPVSDFYTLPVGIRTVAVTKSQFLINGKPFYFHGVNKHEDADIRGKGFDWPLLVKDFNLLRWLGANAFRTSHYPYAEEVMQMCDRYGIVVIDECPGVGLALPQFFNNVSLHHHMQVMEEVVRRDKNHPAVVMWSVANEPASHLESAGYYLKMVIAHTKSLDPSRPVTFVSNSNYAADKGAPYVDVICLNSYYSWYHDYGHLELIQLQLATQFENWYKKYQKPIIQSEYGAETIAGFHQDPPLMFTEEYQKSLLEQYHLGLDQKRRKYVVGELIWNFADFMTEQSPTRVLGNKKGIFTRQRQPKSAAFLLRERYWKIANETRYPHSVAKSQCLENSLFT
notes: purchased AcroBiosystems BEB-H52H3
Consider B2, for which, in data set [6], the Km came out at 319 µM, the kcat worked out at 0.48 s⁻¹ and the kcat/Km came to 1500 M⁻¹ s⁻¹.
